The source made the active and inactive calls. No cut-off for these calls is given here.
Assays:
[1] = molecular target: T1, Neuronal acetylcholine receptor subunit alpha-7 (Rattus norvegicus, UniProt Q05941); assay: Agonist activity at rat alpha7 nAChR expressed in HEK293 cells assessed as increase in Ca2+ flux by Fluo-4 AM dye based FLIPR assay; assay type: cell-based
[2] = molecular target: T1, Neuronal acetylcholine receptor subunit alpha-7; assay: Agonist activity at rat alpha7 nAChR expressed in HEK293 cells co-expressing human RIC3 assessed as area under current curve at holding potential of -90 mV by whole-cell voltage clamp electrophysiology method; assay type: cell-based
[3] = molecular target: T2, Neuronal acetylcholine receptor subunit alpha-7 (Homo sapiens, UniProt P36544); assay: Agonist activity at human alpha7 nAChR expressed in HEK293 cells co-expressing human RIC3 assessed as induction of peak current amplitutde at 10 uM at holding potential of -90 mV by whole-cell voltage clamp electrophysiology method relative to acetylcholine; assay type: cell-based
T2 sequence (P36544 whole entry): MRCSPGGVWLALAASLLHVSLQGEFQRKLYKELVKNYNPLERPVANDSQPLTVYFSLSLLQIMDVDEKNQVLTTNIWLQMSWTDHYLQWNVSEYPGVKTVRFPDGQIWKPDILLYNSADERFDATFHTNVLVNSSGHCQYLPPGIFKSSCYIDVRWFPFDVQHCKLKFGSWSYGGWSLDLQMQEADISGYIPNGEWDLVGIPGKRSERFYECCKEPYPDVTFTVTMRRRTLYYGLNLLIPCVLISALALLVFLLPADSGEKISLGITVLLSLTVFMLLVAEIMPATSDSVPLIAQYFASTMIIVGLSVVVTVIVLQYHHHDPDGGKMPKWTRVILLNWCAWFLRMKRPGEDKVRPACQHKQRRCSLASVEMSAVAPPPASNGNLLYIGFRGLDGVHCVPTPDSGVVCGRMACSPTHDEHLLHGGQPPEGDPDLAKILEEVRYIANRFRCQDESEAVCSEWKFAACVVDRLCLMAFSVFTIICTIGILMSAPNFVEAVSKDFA

[4] = molecular target: T2, Neuronal acetylcholine receptor subunit alpha-7; assay: Agonist activity at human alpha7 nAChR expressed in HEK293 cells co-expressing human RIC3 assessed as area under current curve at 10 uM at holding potential of -90 mV by whole-cell voltage clamp electrophysiology method relative to acetylcholine; assay type: cell-based
[5] = molecular target: Nicotinic acetylcholine receptor alpha-1/beta-1/delta/epsilon (Rattus norvegicus, UniProt P09660+P25108+P25109+P25110); assay: Agonist activity at rat alpha1beta1delta1epsilon nAChR expressed in HEK293 cells assessed as increase in Ca2+ flux by Fluo-4 AM dye based FLIPR assay; assay type: cell-based
[6] = molecular target: Muscarinic acetylcholine receptor M4 (Homo sapiens) (UniProt P08173); assay: Activity at human muscarinic M4 receptor
Muscarinic acetylcholine receptor M4 (Homo sapiens), sequence (P08173 whole entry): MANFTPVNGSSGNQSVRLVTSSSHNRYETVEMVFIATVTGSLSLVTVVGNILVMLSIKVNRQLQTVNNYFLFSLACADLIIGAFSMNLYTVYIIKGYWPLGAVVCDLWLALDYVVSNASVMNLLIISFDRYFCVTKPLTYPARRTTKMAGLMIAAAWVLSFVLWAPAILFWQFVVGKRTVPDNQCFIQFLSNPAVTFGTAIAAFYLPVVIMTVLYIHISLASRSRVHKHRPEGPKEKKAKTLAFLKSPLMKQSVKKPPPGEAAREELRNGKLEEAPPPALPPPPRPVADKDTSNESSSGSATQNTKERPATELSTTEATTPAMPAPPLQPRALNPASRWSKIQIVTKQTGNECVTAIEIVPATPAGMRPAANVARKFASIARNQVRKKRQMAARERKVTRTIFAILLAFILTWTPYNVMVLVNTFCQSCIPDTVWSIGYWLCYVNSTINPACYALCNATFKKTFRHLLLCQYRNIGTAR

[7] = molecular target: Muscarinic acetylcholine receptor M5 (Homo sapiens) (UniProt P08912); assay: Activity at human muscarinic M5 receptor
Muscarinic acetylcholine receptor M5 (Homo sapiens), sequence (P08912 whole entry): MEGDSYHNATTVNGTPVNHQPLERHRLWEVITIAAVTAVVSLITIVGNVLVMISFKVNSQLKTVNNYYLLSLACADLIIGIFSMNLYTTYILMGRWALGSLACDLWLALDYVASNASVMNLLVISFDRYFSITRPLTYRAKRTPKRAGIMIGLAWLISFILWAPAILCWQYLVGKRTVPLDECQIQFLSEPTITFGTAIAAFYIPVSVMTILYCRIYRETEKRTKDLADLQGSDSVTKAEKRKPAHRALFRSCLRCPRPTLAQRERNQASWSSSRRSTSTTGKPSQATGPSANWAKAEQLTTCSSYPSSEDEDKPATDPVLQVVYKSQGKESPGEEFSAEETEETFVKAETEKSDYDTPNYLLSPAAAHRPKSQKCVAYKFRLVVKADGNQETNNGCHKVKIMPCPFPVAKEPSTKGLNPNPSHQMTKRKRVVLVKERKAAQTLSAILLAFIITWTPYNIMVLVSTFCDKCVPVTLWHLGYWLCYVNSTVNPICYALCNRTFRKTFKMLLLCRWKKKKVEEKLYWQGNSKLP

[8] = Metabolic stability in human liver microsomes assessed as compound remaining at 3 uM after 10 mins by LC-MS/MS analysis; assay type: ADME, microsome; conditions: read-out: Stability
[9] = Metabolic stability in rat liver microsomes assessed as compound remaining at 3 uM after 10 mins by LC-MS/MS analysis; assay type: ADME, microsome; conditions: read-out: Stability
[10] = Metabolic stability in dog liver microsomes assessed as compound remaining at 3 uM after 10 mins by LC-MS/MS analysis; assay type: ADME, Canis lupus familiaris, microsome; conditions: read-out: Stability
[11] = Metabolic stability in monkey liver microsomes assessed as compound remaining at 3 uM after 10 mins by LC-MS/MS analysis; assay type: ADME, Macaca mulatta, microsome; conditions: rhesus monkey, read-out: Stability
Cytochrome P450 3A4 [12] = molecular target: T3, Cytochrome P450 3A4 (Homo sapiens, UniProt P08684); assay: Inhibition of recombinant human CYP3A4 using fluorogenic substrate BFC preincubated for 30 mins and measured after 20 to 60 mins in presence of NADPH regenerating system by fluorescence assay; assay type: ADME
T3 sequence (P08684 whole entry): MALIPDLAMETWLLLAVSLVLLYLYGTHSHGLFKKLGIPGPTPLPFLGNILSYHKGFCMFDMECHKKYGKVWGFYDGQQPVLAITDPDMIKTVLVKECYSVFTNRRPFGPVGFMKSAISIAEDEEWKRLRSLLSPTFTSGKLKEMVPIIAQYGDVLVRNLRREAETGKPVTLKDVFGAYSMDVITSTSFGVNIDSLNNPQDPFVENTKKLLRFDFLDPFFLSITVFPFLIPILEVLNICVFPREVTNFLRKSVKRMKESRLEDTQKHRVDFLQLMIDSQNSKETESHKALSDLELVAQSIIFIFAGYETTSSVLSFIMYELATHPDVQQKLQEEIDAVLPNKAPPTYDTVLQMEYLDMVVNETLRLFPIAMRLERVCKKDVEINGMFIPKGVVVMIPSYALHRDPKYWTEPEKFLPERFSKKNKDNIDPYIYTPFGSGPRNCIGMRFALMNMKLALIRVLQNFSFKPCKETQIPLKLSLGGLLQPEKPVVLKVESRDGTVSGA

Cytochrome P450 3A4 [13] = molecular target: T3, Cytochrome P450 3A4; assay: Inhibition of recombinant human CYP3A4 using fluorogenic substrate BZR preincubated for 30 mins and measured after 20 to 60 mins in presence of NADPH regenerating system by fluorescence assay; assay type: ADME
Cytochrome P450 2B6 = Cytochrome P450 2B6 (Homo sapiens, UniProt P20813); assay: Inhibition of recombinant human CYP2B6 using fluorogenic substrate preincubated for 30 mins and measured after 20 to 60 mins in presence of NADPH regenerating system by fluorescence assay; assay type: ADME
Cytochrome P450 2B6, sequence (P20813 whole entry): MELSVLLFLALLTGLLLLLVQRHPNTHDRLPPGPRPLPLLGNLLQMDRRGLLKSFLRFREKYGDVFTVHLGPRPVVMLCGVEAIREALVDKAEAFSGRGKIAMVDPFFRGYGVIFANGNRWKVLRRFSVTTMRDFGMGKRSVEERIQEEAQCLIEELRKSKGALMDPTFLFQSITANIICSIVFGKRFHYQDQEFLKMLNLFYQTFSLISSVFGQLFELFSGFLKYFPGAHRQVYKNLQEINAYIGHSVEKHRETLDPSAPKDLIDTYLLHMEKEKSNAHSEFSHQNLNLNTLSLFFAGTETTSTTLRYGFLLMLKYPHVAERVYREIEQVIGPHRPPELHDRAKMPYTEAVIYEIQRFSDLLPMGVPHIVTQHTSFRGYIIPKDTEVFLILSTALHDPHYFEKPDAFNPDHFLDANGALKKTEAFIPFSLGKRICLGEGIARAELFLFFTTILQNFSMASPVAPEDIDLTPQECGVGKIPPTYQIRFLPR

Cytochrome P450 2C8 = Cytochrome P450 2C8 (Homo sapiens, UniProt P10632); assay: Inhibition of recombinant human CYP2C8 using fluorogenic substrate preincubated for 30 mins and measured after 20 to 60 mins in presence of NADPH regenerating system by fluorescence assay; assay type: ADME
Cytochrome P450 2C8, sequence (P10632 whole entry): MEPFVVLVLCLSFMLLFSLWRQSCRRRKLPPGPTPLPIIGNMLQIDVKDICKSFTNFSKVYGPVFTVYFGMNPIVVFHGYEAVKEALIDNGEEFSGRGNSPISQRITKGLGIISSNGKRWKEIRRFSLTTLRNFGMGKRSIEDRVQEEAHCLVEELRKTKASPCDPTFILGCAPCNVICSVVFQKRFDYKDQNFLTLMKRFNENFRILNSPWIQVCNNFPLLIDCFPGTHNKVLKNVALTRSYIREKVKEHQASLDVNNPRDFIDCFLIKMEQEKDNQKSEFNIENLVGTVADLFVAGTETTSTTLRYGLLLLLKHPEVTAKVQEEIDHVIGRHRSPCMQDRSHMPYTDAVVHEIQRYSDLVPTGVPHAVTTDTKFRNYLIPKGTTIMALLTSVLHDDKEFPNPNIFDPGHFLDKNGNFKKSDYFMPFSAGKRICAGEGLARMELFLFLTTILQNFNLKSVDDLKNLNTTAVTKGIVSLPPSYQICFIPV

Cytochrome P450 2D6 = Cytochrome P450 2D6 (Homo sapiens, UniProt P10635); assay: Inhibition of recombinant human CYP2D6 using fluorogenic substrate preincubated for 30 mins and measured after 20 to 60 mins in presence of NADPH regenerating system by fluorescence assay; assay type: ADME
Cytochrome P450 2D6, sequence (P10635 whole entry): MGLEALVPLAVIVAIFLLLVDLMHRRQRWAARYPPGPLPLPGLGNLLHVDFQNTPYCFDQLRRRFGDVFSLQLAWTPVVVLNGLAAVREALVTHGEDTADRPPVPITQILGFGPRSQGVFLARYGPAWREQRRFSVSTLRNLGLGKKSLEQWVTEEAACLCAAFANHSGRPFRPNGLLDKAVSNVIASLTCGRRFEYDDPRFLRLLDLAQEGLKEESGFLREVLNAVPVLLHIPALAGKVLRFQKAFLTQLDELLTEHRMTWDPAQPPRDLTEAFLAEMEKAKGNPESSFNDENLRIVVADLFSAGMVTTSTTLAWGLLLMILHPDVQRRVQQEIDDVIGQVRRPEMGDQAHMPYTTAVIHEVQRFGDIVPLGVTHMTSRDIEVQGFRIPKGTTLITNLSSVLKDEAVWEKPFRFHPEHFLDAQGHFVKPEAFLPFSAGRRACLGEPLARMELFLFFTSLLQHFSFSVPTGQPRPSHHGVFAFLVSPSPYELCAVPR

[14] = Fraction unbound in human plasma at 10 uM after 4 hrs by equilibrium dialysis method; assay type: ADME, cell-free
[15] = Fraction unbound in rat plasma at 10 uM after 4 hrs by equilibrium dialysis method; assay type: ADME, cell-free
[16] = Fraction unbound in mouse plasma at 10 uM after 4 hrs by equilibrium dialysis method; assay type: ADME, cell-free
[17] = Fraction unbound in dog plasma at 10 uM after 4 hrs by equilibrium dialysis method; assay type: ADME, cell-free, Canis lupus familiaris
[18] = Fraction unbound in monkey plasma at 10 uM after 4 hrs by equilibrium dialysis method; assay type: ADME, cell-free, Macaca mulatta; conditions: rhesus monkey
Mus musculus [19] = assay: Cognitive enhancing effect in C57Bl/6 mouse assessed as time spent on exploring novel objects at 0.1 to 10 mg/kg, sc administered 30 mins prior to test and measured after 24 hrs by novel object recognition test; assay type: functional, organism-based
[20] = Fraction unbound in C57Bl/6 mouse plasma at 0.1 mg/kg, sc after 30 mins; assay type: ADME, organism-based
[21] = Drug level in C57Bl/6 mouse plasma at 0.1 mg/kg, sc after 30 mins; assay type: ADME, organism-based
[22] = Volume of distribution at steady state in mouse at 1 mg/kg, iv administered as 5 mins infusion; assay type: ADME, organism-based; conditions: in vivo, read-out: Vdss
[23] = AUC in mouse at 1 mg/kg, iv administered as 5 mins infusion; assay type: ADME, organism-based; conditions: in vivo
[24] = Ratio of drug level in mouse brain to plasma at 1 mg/kg, iv administered as 5 mins infusion after 30 mins; assay type: ADME, organism-based; conditions: brain and plasma, read-out: BPR
[25] = Volume of distribution at steady state in rat at 1 mg/kg, iv administered as 5 mins infusion; assay type: ADME, organism-based; conditions: in vivo, read-out: Vdss
[26] = Cmax in mouse at 10 mg/kg, po; assay type: ADME, organism-based; design: dose 10 mg/kg, route oral; conditions: in vivo
[27] = AUC in mouse at 10 mg/kg, po; assay type: ADME, organism-based; conditions: in vivo
[28] = Oral bioavailability in mouse at 10 mg/kg; assay type: ADME, organism-based; conditions: in vivo
[29] = Total plasma clearance in rat at 1 mg/kg, iv administered as 5 mins infusion; assay type: ADME, organism-based
[30] = Half life in rat at 1 mg/kg, iv administered as 5 mins infusion; assay type: ADME, organism-based; conditions: in vivo
[31] = AUC in rat at 1 mg/kg, iv administered as 5 mins infusion; assay type: ADME, organism-based; conditions: in vivo
[32] = Cmax in rat at 10 mg/kg, po; assay type: ADME, organism-based; design: dose 10 mg/kg, route oral; conditions: in vivo
[33] = Oral bioavailability in rat at 10 mg/kg; assay type: ADME, organism-based; conditions: in vivo
[34] = Total plasma clearance in dog at 1 mg/kg, iv administered as 5 mins infusion; assay type: ADME, organism-based, Canis lupus familiaris
[35] = Half life in dog at 1 mg/kg, iv administered as 5 mins infusion; assay type: ADME, organism-based, Canis lupus familiaris; conditions: in vivo
[36] = Cmax in dog at 5 mg/kg, po; assay type: ADME, organism-based, Canis lupus familiaris; design: dose 5 mg/kg, route oral; conditions: in vivo
[37] = Oral bioavailability in dog at 5 mg/kg; assay type: ADME, organism-based, Canis lupus familiaris; conditions: in vivo
[38] = Half life in cynomolgus monkey at 1 mg/kg, iv administered as 5 mins infusion; assay type: ADME, organism-based, Macaca fascicularis; conditions: in vivo
[39] = AUC in cynomolgus monkey at 1 mg/kg, iv administered as 5 mins infusion; assay type: ADME, organism-based, Macaca fascicularis; conditions: in vivo
[40] = Cmax in cynomolgus monkey at 5 mg/kg, po; assay type: ADME, organism-based, Macaca fascicularis; design: dose 5 mg/kg, route oral; conditions: in vivo
[41] = Oral bioavailability in cynomolgus monkey at 5 mg/kg; assay type: ADME, organism-based, Macaca fascicularis; conditions: in vivo
Mus musculus [42] = assay: Cognitive enhancing effect in C57Bl/6 mouse assessed as time spent on exploring novel objects administered subcutaneously 30 mins prior to test and measured after 24 hrs by novel object recognition test; assay type: functional; conditions: C57Bl/6, sc, read-out: MED
[43] = Metabolic stability in mouse liver microsomes assessed as compound remaining at 3 uM after 10 mins by LC-MS/MS analysis; assay type: ADME, microsome; conditions: read-out: Stability

T1 sequence (Q05941 whole entry): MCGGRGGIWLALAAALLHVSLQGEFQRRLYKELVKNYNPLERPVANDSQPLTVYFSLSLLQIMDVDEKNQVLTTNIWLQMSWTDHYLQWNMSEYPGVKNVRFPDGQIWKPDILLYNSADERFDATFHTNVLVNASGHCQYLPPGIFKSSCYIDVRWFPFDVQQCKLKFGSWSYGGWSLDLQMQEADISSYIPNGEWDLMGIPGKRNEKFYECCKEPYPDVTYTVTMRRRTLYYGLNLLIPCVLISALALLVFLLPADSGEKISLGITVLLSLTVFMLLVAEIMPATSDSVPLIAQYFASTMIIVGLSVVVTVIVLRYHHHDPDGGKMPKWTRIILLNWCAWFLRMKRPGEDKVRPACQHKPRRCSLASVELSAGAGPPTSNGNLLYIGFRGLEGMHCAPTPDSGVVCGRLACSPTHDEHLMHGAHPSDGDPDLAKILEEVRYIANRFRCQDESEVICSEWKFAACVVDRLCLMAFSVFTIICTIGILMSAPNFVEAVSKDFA

SMILES: c1cn(-c2cc(NC3=NC[C@@]4(CN5CCC4CC5)O3)ncn2)cn1
- EC50 [1]: 0.023 µM
- EC50 [2]: 0.1 µM
- %max [3]: 24%
- %max [4]: 78%
- EC50 [5]: > 100 µM
- Activity [6]: inactive
- Activity [7]: inactive
- remaining at 10 min, 3 µM [8]: 91%
- remaining at 10 min, 3 µM [9]: 95%
- remaining at 10 min, 3 µM [10]: 98%
- remaining at 10 min, 3 µM [11]: 100%
- IC50 (Cytochrome P450 3A4 [12]): > 30 µM
- IC50 (Cytochrome P450 3A4 [13]): > 30 µM
- IC50 (Cytochrome P450 2B6): > 30 µM
- IC50 (Cytochrome P450 2C8): > 30 µM
- IC50 (Cytochrome P450 2D6): > 30 µM
- fraction unbound at 4 h, 10 µM [14]: 0.87
- fraction unbound at 4 h, 10 µM [15]: 0.87
- fraction unbound at 4 h, 10 µM [16]: 0.84
- fraction unbound at 4 h, 10 µM [17]: 0.93
- fraction unbound at 4 h, 10 µM [18]: 0.87
- Activity (Mus musculus [19]): Active
- fraction unbound at 0.5 h [20]: 0.84
- concentration at 0.5 h [21]: 52 nM
- Vd [22]: 7 L/kg
- AUC at 5 min [23]: 0.53 µM·h
- Kp at 0.5 h [24]: 0.21
- Vd [25]: 2.9 L/kg
- Cmax [26]: 550 nM
- AUC [27]: 3.2 µM·h
- bioavailability [28]: 45%
- clearance [29]: 70 mL/min/kg
- half-life [30]: 0.7 h
- AUC at 5 min [31]: 0.75 µM·h
- Cmax [32]: 1600 nM
- bioavailability [33]: 97%
- clearance [34]: 15 mL/min/kg
- half-life [35]: 5.5 h
- Cmax [36]: 3200 nM
- bioavailability [37]: 100%
- half-life [38]: 4.4 h
- AUC at 5 min [39]: 3 µM·h
- Cmax [40]: 1300 nM
- bioavailability [41]: 70%
- minimal effective dose (Mus musculus [42]): 0.1 mg/kg
- remaining at 10 min, 3 µM [43]: 93%

— ChEMBL document CHEMBL4002647, “BMS-933043, a Selective α7 nAChR Partial Agonist for the Treatment of Cognitive Deficits Associated with Schizophrenia” (ACS Med Chem Lett, 2017)
